# Patent publication US12090146B2, “Substituted-pyridinyl compounds and uses thereof” (Bionomics Limited, priority 2018, dated 2024)
# Assays:
# hKv3.1 = target: T1, hKv3.1 (Homo sapiens, UniProt P48547); assay: Automated patch clamp (Patchliner) whole-cell electrophysiology, Kv3.1; format: cell-based; conditions: 10 μM compound, CHO-K1 cells stably expressing hKv3.1; for Kv3.1 Activity at 10 μM Potentiation (%): % potentiation of peak current at −10 mV voltage step vs vehicle; for Kv3.1 Activity at 10 μM Voltage Shift (mV): voltage shift of the IV curve at V1/2
# T1 construct: expressed in transfected cells
# T1 sequence (P48547 1-511): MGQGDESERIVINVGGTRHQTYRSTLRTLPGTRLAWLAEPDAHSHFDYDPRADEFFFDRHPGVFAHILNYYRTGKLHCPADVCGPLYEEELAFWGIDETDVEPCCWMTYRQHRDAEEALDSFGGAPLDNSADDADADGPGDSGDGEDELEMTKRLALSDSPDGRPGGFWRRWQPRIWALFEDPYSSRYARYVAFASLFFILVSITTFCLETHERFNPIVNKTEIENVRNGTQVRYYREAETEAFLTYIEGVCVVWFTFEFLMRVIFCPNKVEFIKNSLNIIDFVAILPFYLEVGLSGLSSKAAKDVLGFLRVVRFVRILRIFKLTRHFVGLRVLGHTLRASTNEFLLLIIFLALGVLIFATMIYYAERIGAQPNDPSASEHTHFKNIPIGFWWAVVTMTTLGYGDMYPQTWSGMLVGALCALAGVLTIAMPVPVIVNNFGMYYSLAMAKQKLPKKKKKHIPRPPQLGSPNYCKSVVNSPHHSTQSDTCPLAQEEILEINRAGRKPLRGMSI
# How it was run: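 CHO-K1 cells stably expressing hKv3.x recorded by whole-cell automated patch clamp at 21-23 °C, held at −80 mV with 1000 ms steps from −60 to +60 mV, vehicle then 10 uM compound (0.33% DMSO, 3-min incubation), 4 cells. Currents normalized to +60 mV; % potentiation at −10 mV and Boltzmann V1/2 shift reported.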
# hKv3.2 = target: T2, hKv3.2 (Homo sapiens, UniProt Q96PR1); assay: Automated patch clamp (Patchliner) whole-cell electrophysiology, Kv3.2; format: cell-based; conditions: 10 μM compound, CHO-K1 cells stably expressing hKv3.2; for activation at 10 µM: % potentiation of peak current at −10 mV voltage step vs vehicle; for Kv3.2 Activity at 10 μM Voltage Shift (mV): voltage shift of the IV curve at V1/2
# T2 construct: expressed in transfected cells
# T2 sequence (Q96PR1 1-638): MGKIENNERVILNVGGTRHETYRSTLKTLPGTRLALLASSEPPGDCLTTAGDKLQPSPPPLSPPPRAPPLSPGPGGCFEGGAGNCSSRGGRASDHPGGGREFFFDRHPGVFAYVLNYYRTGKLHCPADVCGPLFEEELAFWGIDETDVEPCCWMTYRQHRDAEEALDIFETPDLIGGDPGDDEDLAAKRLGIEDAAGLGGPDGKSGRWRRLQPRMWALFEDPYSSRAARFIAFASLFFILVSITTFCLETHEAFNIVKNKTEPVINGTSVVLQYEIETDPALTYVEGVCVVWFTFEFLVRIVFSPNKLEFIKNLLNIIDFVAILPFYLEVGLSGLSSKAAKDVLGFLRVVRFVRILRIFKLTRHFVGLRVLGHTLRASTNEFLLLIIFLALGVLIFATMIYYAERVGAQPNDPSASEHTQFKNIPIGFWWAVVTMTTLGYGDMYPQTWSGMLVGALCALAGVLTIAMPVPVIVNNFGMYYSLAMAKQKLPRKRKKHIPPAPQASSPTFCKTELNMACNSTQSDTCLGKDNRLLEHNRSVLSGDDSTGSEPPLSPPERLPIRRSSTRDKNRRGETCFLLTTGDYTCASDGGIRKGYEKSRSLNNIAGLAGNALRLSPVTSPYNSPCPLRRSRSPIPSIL
# Procedure: hKv3.1, hKv3.2, hKv3.3, and hKv3.4 were stably expressed in CHO-K1 (Chinese hamster ovary) cells and kept under constant antibiotic selection. For in vitro assays, cells were maintained in appropriate growth medium at 37° C. and 5% CO2 in a humidified incubator.
# hKv3.X expressing cells were plated in T-25 flasks for 3-4 days at 37° C. (no selection antibiotic) prior to use and grown to 80% confluence. Cells were washed twice with PBS (calcium and magnesium free) and detached with a 5-minute treatment at 37° C. with 2-3 mls of Accutase®. Cells were collected, and flask was washed in CHO-SFM II media (Life Technologies Gibco), centrifuged for 2 minutes at ˜110×g and resuspended to obtain a single cell suspension of ˜2-3×10^6 cells/ml.
# The intracellular solution contained the following (in mM): KCl 50, NaCl 10, KF 60, EGTA 20, HEPES 10, adjusted to pH 7.2 with KOH and an osmolarity of 285 mOsmol. Seal enhancer was purchased from Nanion (80 mM NaCl, 3 mM KCl, 10 mM MgCl2, 35 mM CaCl2), 10 mM HEPES, pH7.4, 298 mOsmol. The external solution contained (in mM): NaCl 140, KCl 4, CaCl2) 2, MgCl2 1, HEPES 10, Glucose 5, adjusted to pH7.4 and an osmolarity of 298 mOsmol.
# All compounds were initially tested at 10 uM at a final DMSO concentration of 0.33%. Compounds were dissolved in dimethylsulfoxide (DMSO) at a stock concentration of 30 mM. The compound was further diluted 1:10 to give a stock concentration of 3 mM in DMSO. The final assay solution was diluted 1:300 in External solution to give a final concentration of 10 uM. For the DMSO Control Buffer 30 uL of DMSO was added to 10 mL buffer.
# All electrophysiological recordings were performed at ambient temperature (21-23° C.) using automated patch clamp (Patchliner, Nanion Technologies GmbH) in the whole-cell configuration.
# Cell membrane potentials were held at −80 mV, and currents were evoked by voltage steps (1000 ms duration) from −60 to +60 mV in 10 mV increments. This was performed first with vehicle (0.33% DMSO) and then with 10 uM compound, after a 3-minute incubation period. Data was taken from 4 cells per assay.
# The recordings were analysed and selected using peak current amplitude (>100 pA at the −10 mV voltage step) in the absence of compound to eliminate unsuitable cells from analysis. Peak current amplitude was measured and recorded for each voltage step and data was normalised to the maximum current at +60 mV. The normalised Kv3.x currents following addition of the compound were then compared with the currents recorded prior to compound addition (vehicle control). Positive modulation was determined as % potentiation at the voltage step of −10 mV=[current (cmpd)/current (veh)]*100−100. % potentiation ≥50% was considered acceptable. In addition, voltage shift of the IV curve at V1/2 was measured. V1/2 of ≥−5 mV was also considered acceptable. IV curves were plotted in GraphPad Prism (software version 6.0) and fitted with a Boltzmann equation, where V1/2 is the voltage at half-maximal activation.
Kv3.1 Activity at 10 μM Potentiation (%) (hKv3.1),Kv3.1 Activity at 10 μM Voltage Shift (mV) (hKv3.1),activation at 10 µM (hKv3.2) [%],Kv3.2 Activity at 10 μM Voltage Shift (mV) (hKv3.2),SMILES
227,−7.49,93,−5.37,"O=C1NC2(CCCC2)C(=O)N1c1ccnc(Oc2ccc3c(c2)OC(F)(F)O3)c1F [Example 92, 3-[2-[(2,2-difluoro-1,3-benzodioxol-5-yl)oxy]-3-fluoro-4-pyridyl]-1,3-diazaspiro[4.4]nonane-2,4-dione]"
142,−8.79,71,−6.55,"O=C1NC2(CCCCC2)C(=O)N1c1ccnc(Oc2ccc3c(c2)OC(F)(F)O3)c1F [Example 93, 3-[2-[(2,2-difluoro-1,3-benzodioxol-5-yl)oxy]-3-fluoro-4-pyridyl]-1,3-diazaspiro[4.5]decane-2,4-dione]"
